The values that follow are results of earlier work, collected in PubChem BioAssay AID1259409 (Chemical Carcinogenesis Research Information System (CCRIS), 2018).

The test system of this series is rodent chemically induced tumor inhibition, incidence and multiplicity. Nature of the series: CCRIS tumor inhibitor studies.

Regarding `CCCCCCCC/C=C\CCCCCCCC(=O)O`, the “tumour outcome (control, treated, inhibition, significance)” value is, setting by setting: (Carcinogen: 1,2-DIMETHYLHYDRAZINE, 540-73-8, Dose [Inhibitor]: 0, 1 MG/D FOR 25 WK BEGINNING 3 WK PRIOR TO CARCINOGEN (STUDY DURATION: 25 WK), Route [Inhibitor]: ORAL, Species: RAT, Strain/Sex: CD-1/MALE, Target Tissue: Type of Lesion: COLON: TUMOR, Dose [Carcinogen]: 15 MG/KG 1/WK FOR 16 WK) 17/22 (77%), 19/22 (86%), -12%, not significant; (Carcinogen: BENZO[A]PYRENE, 50-32-8, Dose [Inhibitor]: 25 MG IN 0.1 ML ACETONE 3/WK ADMINISTERED SIMULTANEOUSLY WITH CARCINOGEN FOR DURATION OF STUDY (STUDY DURATION: 440 D), Route [Inhibitor]: DERMAL, Species: MOUSE, Strain/Sex: ICR/FEMALE, Target Tissue: Type of Lesion: SKIN: PAPILLOMA, Dose [Carcinogen]: 5 UG IN 0.1 ML ACETONE 3/WK FOR DURATION OF STUDY, Promoter: NONE USED) 16/50 (32%), 0/50 (0%), 100%, not calculated; (Carcinogen: BENZO[A]PYRENE, 50-32-8, Dose [Inhibitor]: 25 MG IN 0.1 ML ACETONE 3/WK ADMINISTERED SIMULTANEOUSLY WITH CARCINOGEN FOR DURATION OF STUDY (STUDY DURATION: 440 D), Route [Inhibitor]: DERMAL, Species: MOUSE, Strain/Sex: ICR/FEMALE, Target Tissue: Type of Lesion: SKIN: SQUAMOUS CARCINOMA, Dose [Carcinogen]: 5 UG IN 0.1 ML ACETONE 3/WK FOR DURATION OF STUDY, Promoter: NONE USED) 12/50 (24%), 0/50 (0%), 100%, not calculated.
On to `C=C1C/C(=C/C)C(=O)O[C@@H]2CCN3CC=C(COC(=O)[C@@]1(O)CO)[C@H]23`, for which the “tumour outcome (control, treated, inhibition, significance)” value by setting is: (Dose [Inhibitor]: 0, 1 MG/KG IN 0.1 M PHOSPHATE BUFFER 5 D/WK FOR 105 WK (STUDY DURATION: 105 EK), Route [Inhibitor]: GAVAGE, Species: MOUSE, Strain/Sex: B6C3F1/MALE, Target Tissue: Type of Lesion: LIVER: HEPATOCELLULAR ADENOMA OR CARCINOMA) 36/50 (72%), 23/50 (46%), 36%, p<0.05; (Dose [Inhibitor]: 0, 3 MG/KG IN 0.1 M PHOSPHATE BUFFER 5 D/WK FOR 105 WK (STUDY DURATION: 105 WK), Route [Inhibitor]: GAVAGE, Species: MOUSE, Strain/Sex: B6C3F1/FEMALE, Target Tissue: Type of Lesion: LIVER: HEPATOCELLULAR ADENOMA OR CARCINOMA) 16/49 (33%), 0/50 (0%), 100%, p<0.01.
In the case of `CCCc1cc(OC)c2c(c1)OCO2`, the “tumour outcome (control, treated, inhibition, significance)” value is 12/17 (71%), 12/19 (63%), 11%, not significant (Carcinogen: BENZO[A]PYRENE, 50-32-8, Dose [Inhibitor]: 0, 10 MG SUSPENDED IN 0.3 ML COTTONSEED OIL 3/WK FOR 4 WK ON DAYS OTHER THAN THE CARCINOGEN TREATMENT, 3 ADDITIONAL DOSE, Route [Inhibitor]: GAVAGE, Species: MOUSE, Strain/Sex: STRAIN-A/FEMALE, Target Tissue: Type of Lesion: FORESTOMACH: TUMOR, Dose [Carcinogen]: 1 MG IN 0.3 ML COTTONSEED OIL 2/WK FOR 4 WK, Promoter: NONE USED) and 17/17 (100%), 19/19 (100%), 0%, not significant (Carcinogen: BENZO[A]PYRENE, 50-32-8, Dose [Inhibitor]: 0, 10 MG SUSPENDED IN 0.3 ML COTTONSEED OIL 3/WK FOR 4 WK ON DAYS OTHER THAN THE CARCINOGEN TREATMENT, 3 ADDITIONAL DOSE, Route [Inhibitor]: GAVAGE, Species: MOUSE, Strain/Sex: STRAIN-A/FEMALE, Target Tissue: Type of Lesion: LUNG: TUMOR, Dose [Carcinogen]: 1 MG IN 0.3 ML COTTONSEED OIL 2/WK FOR 4 WK, Promoter: NONE USED).
`CC1=C(O)C(=O)C(C)O1` (stereo not drawn): the “tumour outcome (control, treated, inhibition, significance)” value is, setting by setting: (Carcinogen: BENZO[A]PYRENE, 50-32-8, Dose [Inhibitor]: 0, 25 PPM IN DIET FOR 17 WK BEGINNING 1 WK POST CARCINOGEN TREATMENT (STUDY DURATION: 21 WK), Route [Inhibitor]: ORAL, Species: MOUSE, Strain/Sex: ICR/FEMALE, Target Tissue: Type of Lesion: FORESTOMACH: TUMOR, Dose [Carcinogen]: 1.5 MG IN 0.2 ML CORN OIL 1/WK FOR 4 WK, Promoter: NONE USED) 90%, 74%, 18%, not significant; (Carcinogen: BENZO[A]PYRENE, 50-32-8, Dose [Inhibitor]: 0, 50 PPM IN DIET FOR 17 WK BEGINNING 1 WK POST CARCINOGEN TREATMENT (STUDY DURATION: 21 WK), Route [Inhibitor]: ORAL, Species: MOUSE, Strain/Sex: ICR/FEMALE, Target Tissue: Type of Lesion: FORESTOMACH: TUMOR, Dose [Carcinogen]: 1.5 MG IN 0.2 ML CORN OIL 1/WK FOR 4 WK, Promoter: NONE USED) 90%, 72%, 20%, p<0.1; (Carcinogen: BENZO[A]PYRENE, 50-32-8, Dose [Inhibitor]: 0, 75 PPM IN DIET FOR 17 WK BEGINNING 1 WK POST CARCINOGEN TREATMENT (STUDY DURATION: 21 WK), Route [Inhibitor]: ORAL, Species: MOUSE, Strain/Sex: ICR/FEMALE, Target Tissue: Type of Lesion: FORESTOMACH: TUMOR, Dose [Carcinogen]: 1.5 MG IN 0.2 ML CORN OIL 1/WK FOR 4 WK, Promoter: NONE USED) 90%, 62%, 31%, p<0.05.
Regarding `CC(C)NCC(O)COc1cccc2ccccc12` (stereo not drawn), the “tumour outcome (control, treated, inhibition, significance)” value (Carcinogen: 4-(METHYLNITROSAMINO)-1-(3-PYRIDYL)-1-BUTANONE [64091-91-4], Dose [Inhibitor]: 3 MG/KG BW 3X/WK FOR 20 WK IMMEDIATELY PRIOR TO EACH CARCINOGEN DOSE (STUDY DURATION: 52 WK), Route [Inhibitor]: SUBCUTANEOUS, Species: HAMSTER, Strain/Sex: SYRIAN/MALE, Target Tissue: Type of Lesion: LUNG: TUMOR, Dose [Carcinogen]: 10 MG/KG BW 3X/WK FOR 20 WK (STUDY DURATION: 52 WK), Promoter: NONE) was 12/15 (80.0%), 6/15 (40%), 50%, not calculated; the “tumour outcome (control, treated, inhibition, significance)” value (Carcinogen: 4-(METHYLNITROSAMINO)-1-(3-PYRIDYL)-1-BUTANONE [64091-91-4], Dose [Inhibitor]: 3 MG/KG BW 3X/WK FOR 20 WK IMMEDIATELY PRIOR TO EACH CARCINOGEN DOSE (STUDY DURATION: 52 WK), Route [Inhibitor]: SUBCUTANEOUS, Species: HAMSTER, Strain/Sex: SYRIAN/MALE, Target Tissue: Type of Lesion: NASAL CAVITY: TUMOR, Dose [Carcinogen]: 10 MG/KG BW 3X/WK FOR 20 WK (STUDY DURATION: 52 WK), Promoter: NONE) is 4/15 (26.7%), 4/15 (26.7%), 0%, not calculated; the “tumour outcome (control, treated, inhibition, significance)” value (Carcinogen: N-METHYL-N'-NITRO-N-NITROSOGUANIDINE, 70-25-7, Dose [Inhibitor]: 0, 5 MG/KG IN OLIVE OIL SUSPENSION 1/D BEGINNING 1 WK POST LAST CARCINOGEN DOSE AND CONTINUING FOR DURATION OF STUDY (ST, Species: RAT, Strain/Sex: WISTAR/MALE, Target Tissue: Type of Lesion: GLANDULAR STOMACH: ADENOCARCINOMA, Dose [Carcinogen]: 50 UG/ML IN DRINKING WATER FOR 25 WK, Promoter: NONE USED) is given as 15/18 (83%), 11/20 (55%), 34%, not calculated. The outcome (Carcinogen: 4-(Methylnitrosamino)-1-(3-pyridyl)-1-butanone, Dose [Inhibitor]: 0.3 mg/100 g bw, 5 x a wk from offspring age of 4 wks-8 mo., Route [Inhibitor]: Subcutaneous injection, Species: Hamster, Strain/Sex: Syrian golden, male and female offspring, Target Tissue: Type of Lesion: Pancreas: Tumor (in offspring), Dose [Carcinogen]: 50 mg/kg once to dams on day 15 of pregnancy, Promoter: Ethanol) is given as 66.6%, 8.3%.
Consider `O=C(O)c1ccc(-c2c3nc(c(-c4ccc(C(=O)O)cc4)c4ccc([nH]4)c(-c4ccc(C(=O)O)cc4)c4ccc([nH]4)c(-c4ccc(C(=O)O)cc4)c4nc2C=C4)C=C3)cc1`, for which the “tumour outcome (control, treated, inhibition, significance)” value (Carcinogen: 7,12-DIMETHYLBENZ[A]ANTHRACENE [57-97-6], Dose [Inhibitor]: 0, 0.1% IN 0.2 ML DMSO-ACETONE (15:85, V/V) 2X/WK FOR 30 WK 10 MIN PRIOR TO PROMOTER DOSE (STUDY DURATION: 31 WK), Route [Inhibitor]: DERMAL, Species: MOUSE, Strain/Sex: ICR/FEMALE, Target Tissue: Type of Lesion: SKIN: PAPILLOMA, Dose [Carcinogen]: 0.2 UMOL ONCE (STUDY DURATION: 31 WK), Promoter: 12-O-TETRADECANOYLPHORBOL-13-ACETATE [16561-29-8]) is given as 100%, 73%, 27%, not calculated.
Regarding `[Mg+2]`, the “tumour outcome (control, treated, inhibition, significance)” value (Carcinogen: 7,12-DIMETHYLBENZ[A]ANTHRACENE, 57-97-6, Dose [Inhibitor]: 0, 50 UG/ML IN DRINKING WATER FROM 40-90 D OF AGE THEN 0, 30 UG/ML FROM 90-180 D OF AGE AND 0, 20 UG/ML FROM 180-240 D O, Dose [Inhibitor]: 0, 50 UG/ML IN DRINKING WATER FROM 40-90 D OF AGE THEN 0, 30 UG/ML FROM 90-180 D OF AGE AND 0, 20 UG/ML FROM 180-240 D O, Route [Inhibitor]: ORAL, Species: RAT, Strain/Sex: SPRAGUE DAWLEY/FEMALE, Target Tissue: Type of Lesion: MAMMARY GLAND: ADENOCARCINOMA, FIBROADENOMA, Dose [Carcinogen]: 5 MG IN 0.2 ML SESAME OIL 1/2 D FOR 12 D BEGINNING AT 50 D OF AGE, Promoter: NONE USED) is on record as 100%, 46%, 54%, p<0.001.
Take `COc1cc([C@H]2Oc3cc([C@H]4Oc5cc(O)cc(O)c5C(=O)[C@@H]4O)ccc3O[C@@H]2CO)ccc1O`: the outcome (Carcinogen: N-Butyl-N-(4-hydroxybutyl)nitrosamine, 3817-11-6, Dose [Inhibitor]: 200 mg/kg bw 1 wk before carcinogen, dose duration 51 wk, study duration 56 wk, Route [Inhibitor]: Oral (gavage) 5 d/wk, Species: Mouse, Strain/Sex: ICR/Male, Target Tissue: Type of Lesion: Urinary Bladder: carcinoma, Dose [Carcinogen]: 0, 0.5% in drinking water for 6 wk, Promoter: None) is given as 52%, 4.1%, p=0.001.
With `O=C(O)CNC(=O)c1ccccc1`, where the note is “Carcinogen: N-BUTYL-N-(4-HYDROXYBUTYL)NITROSAMINE, 3817-11-6, Dose [Inhibitor]: 5% DIET DAILY FOR 34 WK STARTING AT COMPLETION OF CARCINOGEN TREATMENT (STUDY DURATION: 38 WK), Route [Inhibitor]: ORAL, Species: RAT, Strain/Sex: F344/MALE, Target Tissue: Type of Lesion: URINARY BLADDER: PAPILLOMA, Dose [Carcinogen]: 0.01% IN DRINKING WATER FOR 4 WK, Promoter: NONE USED”, the “tumour outcome (control, treated, inhibition, significance)” value is 33%, 23%, 30%, not significant.
